20 compounds from patent publication US11319324B2, “Pyrazolo-pyrrolo-pyrimidine-dione derivatives as P2X3 inhibitors” (Bayer Aktiengesellschaft, priority 2017, dated 2022) can be followed below.

Common to all, as to assay type: cell-based
Test [1] deals with T1, human P2X2/3 receptors (Homo sapiens, UniProt P56373+Q9UBL9).
T1 construct: expressed in transfected cells; host or cells: human astrocytoma 1321N1 (1312N1 [sic])
T1 sequence (P56373 1-397): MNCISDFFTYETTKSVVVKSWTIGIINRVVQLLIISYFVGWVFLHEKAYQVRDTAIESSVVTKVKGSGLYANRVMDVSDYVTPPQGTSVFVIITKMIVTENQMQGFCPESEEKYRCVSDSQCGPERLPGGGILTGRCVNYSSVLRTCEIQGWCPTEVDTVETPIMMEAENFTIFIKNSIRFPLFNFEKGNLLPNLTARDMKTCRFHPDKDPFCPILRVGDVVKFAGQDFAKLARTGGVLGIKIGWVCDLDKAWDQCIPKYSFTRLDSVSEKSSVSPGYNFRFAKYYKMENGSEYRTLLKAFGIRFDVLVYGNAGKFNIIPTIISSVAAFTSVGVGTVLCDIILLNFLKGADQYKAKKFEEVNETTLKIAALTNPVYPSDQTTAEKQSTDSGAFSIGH
T1 sequence (Q9UBL9 1-471): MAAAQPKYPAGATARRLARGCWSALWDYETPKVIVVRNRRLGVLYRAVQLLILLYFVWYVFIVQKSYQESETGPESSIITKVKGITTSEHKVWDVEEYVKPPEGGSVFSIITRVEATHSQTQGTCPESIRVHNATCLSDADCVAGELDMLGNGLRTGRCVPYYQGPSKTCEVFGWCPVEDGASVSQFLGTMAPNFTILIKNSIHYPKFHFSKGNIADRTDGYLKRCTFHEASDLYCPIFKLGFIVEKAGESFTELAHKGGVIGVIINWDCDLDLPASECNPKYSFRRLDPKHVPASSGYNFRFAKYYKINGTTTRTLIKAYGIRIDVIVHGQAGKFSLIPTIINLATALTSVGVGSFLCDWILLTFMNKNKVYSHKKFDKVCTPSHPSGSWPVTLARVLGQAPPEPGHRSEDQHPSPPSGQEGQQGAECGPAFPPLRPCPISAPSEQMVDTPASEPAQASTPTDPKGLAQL
Kind of test: Intracellular calcium measurement, antagonist activity at human P2X2/3 receptors (hP2X23 1321N1), Fluo8. As to conditions: for IC50: column 4); 1321N1 cells, human P2X2/3, Fluo8, agonist ATP at EC50; read-out: 4) hP2X2/3 IC50 [nM] (1321N1); for hP2X23/hP2X3* Selectivity (1321N1): ratio of column 4) hP2X2/3 to column 3) hP2X3, 1321N1. A digest of the protocol: (§1)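 Antagonism was assessed by decrease of the Fluo8 calcium signal after ATP challenge, with ATP dosed at the EC50 of whichever receptor was tested. Stable 1321N1 astrocytoma lines expressed either human P2X3 or both P2X2 and P2X3, and were dye-loaded 60 min before a 10 min compound incubation.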

The target of test [2] is T2, human P2X3 receptor (Homo sapiens, UniProt P56373).
T2 sequence (P56373 1-397): T1 sequence (P56373 1-397)
In words: Intracellular calcium measurement to assess antagonist activity at human P2X3 receptors (hP2X3 CHO), photina luminescence. The conditions noted are these: column 2), CHO cells, agonist α,β-methylene-ATP at EC50. Also on record: expressed in transfected cells; host or cells: Chinese hamster ovary (CHO) cells. Put shortly:
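Antagonism read as lowered photina luminescence after agonist stimulation in recombinant hP2X3/photina CHO cells. Cells seeded one day earlier (30 °C) and reconstituted with 5 μg/ml coelenterazine in 2 mM Ca-tyrode buffer for 3 h at 37 °C before measurement.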

Test [3] addresses T2, human P2X3 receptor. Kind of test: Intracellular calcium measurement to assess antagonist activity at human P2X3 receptors (hP2X3 FLIPR). On the set-up: expressed in transfected cells; host or cells: human astrocytoma 1321N1 (1312N1 [sic]). As to conditions: head prints (1321N1); read-out: 1) hP2X3 IC50 [nM] (1321N1). Here is the method:
1) Intracellular Calcium Measurement to Assess Antagonist Activity at Human P2X3 Receptors (hP2X3 FLIPR)
A fluorescent imaging plate reader (FLEX/FLIPR station; Molecular Devices) was used to monitor intracellular calcium levels using the calcium-chelating dye Fluo-4 (Molecular Probes). The excitation and emission wavelengths used to monitor fluorescence were 470-495 nm and 515-575 nm, respectively. The human astrocytoma […] cells expressing purinergic receptors P2X3 (human) were plated at a density of 15,000 cells/well in collagen—coated 384-well plates approximately 20 hours before beginning the assay. […] The dye supernatant was removed and replaced with 45 μl probenecid buffer (Hank's balanced salt solution, 20 mM HEPES, 0.5 mM CaCl2, 0.5 mM MgCl2, 0.1% BSA, 5 mM probenecid, 10 mM D-glucose monohydrate, pH=7.4). The test compounds were added in a volume of 5 μl and allowed to incubate for 30 min at 37° C. The final assay DMSO concentration is 1%. […] The fluorescence was measured for an interval of 90 sec at 2 sec intervals and analyzed based on the increase in peak relative fluorescence units (RFU) compared to the basal fluorescence. Peak fluorescence was used to determine the response to agonist obtained at each concentration of test compound by the following equation: Response=100*(RFU(test compound)−RFU(control))/(RFU(DMSO)−RFU(control))
The Examples were tested in triplicates per plate and mean values were plotted in Excel XLFit to determine IC50 values at the human P2X3 and human P2X2/3 receptors, percentage of maximal inhibition and the Hill coefficients.

Test [4] has as its target T2, human P2X3 receptor. Kind of test: Intracellular calcium measurement, antagonist activity at human P2X3 receptors (hP2X3 1321N1), Fluo8. On the set-up: expressed in transfected cells; host or cells: human astrocytoma 1321N1 (1312N1 [sic]). As to conditions: column 3); 1321N1 cells, human P2X3, Fluo8, agonist ATP at EC50. A digest of the protocol: as §1

On to `CC(C)(C)c1cc2n(CC(=O)Nc3ccc(F)cn3)c3c(c(=O)n2n1)CN(C1CCC1)C3=O` [Example 17], for which the IC50 in test [1] is greater than 18100 nM; in test [2], 72 nM; in test [3], 31 nM; in test [4], 53 nM. Moreover, the “hP2X23/hP2X3* Selectivity (1321N1)” value in test [1] was greater than 345.
For `CC(C)(C)c1cc2n(CC(=O)Nc3ccc(Cl)cn3)c3c(c(=O)n2n1)CN(C1CCC1)C3=O` [Example 18], in that order: 2500 nM, 106 nM, 69 nM, 124 nM and 20.
The matching figures for `Cc1ccc(NC(=O)Cn2c3c(c(=O)n4nc(C(C)(C)C)cc24)CN(C2CCC2)C3=O)nc1` [Example 19]: 8050 nM, 430 nM, 379 nM, 740 nM and 11.
For `CC[C@H](C)N1Cc2c(n(CC(=O)Nc3ccc(F)cn3)c3cc(C(F)(F)F)nn3c2=O)C1=O` [Example 20], in that order: greater than 22000 nM, 375 nM, 312 nM, 537 nM and greater than 41.
Turning to `CC[C@H](C)N1Cc2c(n(CC(=O)Nc3ccc(C)cn3)c3cc(C(F)(F)F)nn3c2=O)C1=O` [Example 21], the IC50 in test [1] is 12400 nM; in test [2], 180 nM; in test [3], 164 nM; in test [4], 233 nM. Moreover, the “hP2X23/hP2X3* Selectivity (1321N1)” value in test [1] is 53.
The matching figures for `CC[C@H](C)N1Cc2c(n(CC(=O)Nc3ccc(Cl)cn3)c3cc(C(F)(F)F)nn3c2=O)C1=O` [Example 22]: 2850 nM, 81 nM, 56 nM, 82 nM and 35.
For `Cc1cc2n(CC(=O)Nc3ccc(F)cn3)c3c(c(=O)n2n1)CN(C(C)C)C3=O` [Example 23], in that order: greater than 20600 nM, 64 nM, 80 nM, 153 nM and greater than 11134.
Regarding `CCc1cc2n(CC(=O)Nc3ccc(F)cn3)c3c(c(=O)n2n1)CN(C(C)C)C3=O` [Example 24], the IC50 was 10000 nM in test [1], 60 nM in test [2], 35 nM in test [3] and 76 nM in test [4]. In test [1], the “hP2X23/hP2X3* Selectivity (1321N1)” value came out at 132.
The matching figures for `COCC(C)N1Cc2c(n(CC(=O)Nc3ccc(F)cn3)c3cc(C(C)(C)C)nn3c2=O)C1=O` (stereo not shown) [Example 25]: 7150 nM, 23 nM, 10 nM, 11 nM and 624.
The matching figures for `CC(C)(C)c1cc2n(CC(=O)Nc3ccc(F)cn3)c3c(c(=O)n2n1)CN(C1CCCC1)C3=O` [Example 26]: 2450 nM, 20 nM, 22 nM, 46 nM and 54.
The matching figures for `CC(C)(C)c1cc2n(CC(=O)Nc3ccc(F)cn3)c3c(c(=O)n2n1)CN(C1COC1)C3=O` [Example 27]: greater than 21000 nM, 118 nM, 95 nM, 205 nM and greater than 102.
For `CC(C)(C)c1cc2n(CC(=O)Nc3ccc(F)cn3)c3c(c(=O)n2n1)CN(CC1CCOCC1)C3=O` [Example 28], the IC50 in test [1] was found to be 12300 nM; in test [2], 305 nM; in test [3], 146 nM; in test [4] it was 410 nM. The “hP2X23/hP2X3* Selectivity (1321N1)” value in test [1] came to 30.
The matching figures for `CC(C)N1Cc2c(n(CC(=O)Nc3ccc(Cl)cn3)c3cc(C(F)(F)F)nn3c2=O)C1=O` [Example 29]: 4150 nM, 41 nM, 62 nM, 36 nM and 115.
The matching figures for `Cc1ccc(NC(=O)Cn2c3c(c(=O)n4nc(C(F)(F)F)cc24)CN(C(C)C)C3=O)nc1` [Example 30]: greater than 21500 nM, 170 nM, 344 nM, 393 nM and greater than 55.
For `CC(C)N1Cc2c(n(CC(=O)Nc3ccc(F)cn3)c3cc(C(F)(F)F)nn3c2=O)C1=O` [Example 31], in that order: greater than 32000 nM, 120 nM, 130 nM, 277 nM and greater than 116.
Regarding `CC(C)(O)CN1Cc2c(n(CC(=O)Nc3ccc(F)cn3)c3cc(C(C)(C)C)nn3c2=O)C1=O` [Example 32], the IC50 in test [1] was found to be 12000 nM; in test [2] it was 121 nM; in test [3], 139 nM; in test [4], 170 nM. The “hP2X23/hP2X3* Selectivity (1321N1)” value in test [1] is on record as 71.
Consider `CC(C)(C)c1cc2n(CC(=O)Nc3ccc(F)cn3)c3c(c(=O)n2n1)CN(C1CCOCC1)C3=O` [Example 33], for which the IC50 in test [1] is greater than 21500 nM; in test [2], 165 nM; in test [3], 276 nM; in test [4], 297 nM. Moreover, the “hP2X23/hP2X3* Selectivity (1321N1)” value in test [1] is given as greater than 72.
The matching figures for `COC[C@H](C)N1Cc2c(n(CC(=O)Nc3ccc(F)cn3)c3cc(C(C)(C)C)nn3c2=O)C1=O` [Example 35]: 5650 nM, 20 nM, 12 nM, 16 nM and 353.
Turning to `COCC(C)N1Cc2c(n(CC(=O)Nc3ccc(F)cn3)c3cc(Br)nn3c2=O)C1=O` (stereo not shown) [Example 36, 2-[2-bromo-6-(1-methoxypropan-2-yl)-5,8-dioxo-5,6,7,8-tetrahydro-4H-pyrazolo[1,5-a]pyrrolo[3,4-d]pyrimidin-4-yl]-N-(5-fluoropyridin-2-yl)acetamide], the IC50 in test [1] is greater than 20900 nM; in test [2], 44 nM; in test [3] it was 34 nM; in test [4], 57 nM. Moreover, the “hP2X23/hP2X3* Selectivity (1321N1)” value in test [1] is greater than 368.
Turning to `COC[C@H](C)N1Cc2c(n(CC(=O)Nc3ccc(F)cn3)c3cc(C(F)(F)F)nn3c2=O)C1=O` [Example 37], the IC50 in test [1] was greater than 32000 nM; in test [2], 135 nM; in test [3], 82 nM; in test [4], 200 nM. Moreover, the “hP2X23/hP2X3* Selectivity (1321N1)” value in test [1] is recorded as greater than 160.
